# Test results published in patent US6432426B1, “Non-staining topical iodine composition and method” (Symbollon Corporation, priority 1998, dated 2002).
# Columns and labels:
# Human Skin = assay: Coloration of human skin by a 30 second exposure (vial contact on forearm); hue by Pantone chips, intensity against Brown No. 3 dye; format: in vivo
# Text: 1. […] Elemental iodine was weighed on an analytical balance and dissolved in one liter of water that had been acidified with 2 drops of 0.1N hydrochloric acid. The concentration of molecular iodine in the water was confirmed by potentiometric analysis (Gottardi, W., 1983. Fresenius Z. Anal. Chem., Vol. 314, pages 582-585). Samples were also titrated with thiosulfate to determine that at least 95% of the theoretical yield of titratable iodine was in the form of molecular iodine as opposed to triiodide. The concentration of molecular iodine was varied from 25 ppm to 330 ppm.
# One dram vials (Kimble catalog #60931) were used to deliver 4 mL of the room temperature iodine solutions samples. The vials were placed on the forearm of a subject and then the forearm was inverted to initiate contact of the sample with the iodine solution. The contact area was a circle with a diameter of 1.3 cm. The samples were held on the arm for 30 seconds at room temperature. Three different subjects were used for this experiment. Immediately after the 30 second contact time the arms of the subjects were examined for stains; 10 minutes after the end of the contact time all subjects arms were examined for stains again..
# For the purposes of this application, two different parameters were used to characterize the color and intensity of the term stain. The hue of the color imparted to skin was characterized by using the Pantone Color Matching System (Pantone Color Specifier, Pantone Inc., Carlstadt, N.J.) which allows comparison with 1,012 defined colors on two types of paper. Stains from triiodide were matched to the Pantone color chip No. 152C. Short-lived coloration from molecular iodine were matched to the Pantone color chip 1375C.
# The intensity of any coloration on skin was characterized by applying an aqueous solution of known concentrations of a food dye, Brown No. 3 (Crompton & Knowles, Mahwah, N.J. —Code DP935159), for 10 seconds using the method described above for application of iodine. Brown No. 3 was applied to the skin at concentrations that ranged from 500 ppm to 30 ppm and the intensity of the color from Brown No. 3 was compared to the intensity of coloration from iodine compositions. For instance, the intensity of color 10 minutes after a 30 second contact with a 600 ppm aqueous triiodide solution was equivalent to the color from a 10 second exposure to a 250 ppm Brown No. 3 solution. In contrast, the intensity of color 10 minutes after a 30 second contact with a 300 ppm aqueous molecular iodine solution was equivalent to the color from a ten second exposure to a 30 ppm Brown No. 3 solution which is barely discernible.
# epidermis = assay: Staining of epidermis by triiodide solutions, 10 second contact on forearm; format: in vivo, human
# Method: 3. […] Solutions of triiodide were prepared by dissolving elemental iodine into oxygen-free solutions of sodium iodide that were at a pH of 4.5. A molar excess of iodide was used. Based on thiosulfate titrations, potentiometric measurements of iodine and ion selective electrode measurements of iodide ion, essentially all of the elemental iodine was converted into triiodide. Solutions of triiodide were made that varied from 100 to 25,000 ppm. Four mL of each sample was transferred to a 1.0 dram vial (Kimble catalog #60931) at room temperature and placed on the forearm of a subject and then the forearm was inverted to initiate contact of the sample with the triiodide solution. The samples were held on the arm for 10 seconds.
# The contact areas were checked for stains at 10 minutes and 3 hours after exposure.
# Staphylococcus aureus = assay: Residual biocidal effect of skin associated iodine, colony counts from inoculated treated skin; format: in vivo; conditions: solution with 700 ppm of triiodide, but no molecular iodine
# Method: 5. […] […] […] […] The samples were contacted with the arm for 30 seconds. After contact the treated arm was flushed with water for 15 seconds and dried.
# […] Two hours after contact each area was inoculated with […] of a 1:100 dilution of a 48 hour soy-trypticase culture of Staphylococcus aureus. Ninety minutes after inoculation the mouths of sterile 25 mL flasks filled with 2 mL of soy-trypticase with 2% Tween 80 were placed over the marked skin areas. The flasks were gently shaken for 1 minute and a colony count was performed on blood agar plates after incubation at 37° C. for 48 hours. The residual biocidal effect from skin associated molecular iodine was determined by subtracting the log of the colony counts from the areas of skin that were contacted with iodine from the controls (log colony count from untreated skin). The average difference in colony counts between treated and untreated skin was 2.4 logs.
structure (smiles),measurement,setting,value
"I[IH]I [triiodide, reference compound]","Intensity of color on skin, equivalent Brown No. 3 solution (10 second exposure)",Human Skin; 10 minutes after a 30 second contact with a 600 ppm aqueous triiodide solution,250 ppm
same,"Hue of the color imparted to skin, matched Pantone color chip",Human Skin; Pantone Color Matching System,152C
same,Staining at three hours,epidermis; 100 ppm triiodide,staining was present at three hours but it was not visibly noticeable
same,Degree of color,"epidermis; 700 ppm triiodide, 3 hours after contact",minimally discernable
same,Coloration of the epidermis 3 hours after contact,"epidermis; triiodide at concentrations from 25,000 to 700 ppm",A definite coloration of the epidermis was evident
same,Reduction in the concentration of pathogens,Staphylococcus aureus,no measurable reduction
